The record followed here is ChEMBL document CHEMBL2074226, “Molecular evidence of organic ion transporters in the rat adrenal cortex with adrenocorticotropin-regulated zonal expression” (Endocrinology, 2003).

In the data set the target is T1, Solute carrier family 22 member 6 (Rattus norvegicus, UniProt O35956).
T1 sequence (O35956 whole entry): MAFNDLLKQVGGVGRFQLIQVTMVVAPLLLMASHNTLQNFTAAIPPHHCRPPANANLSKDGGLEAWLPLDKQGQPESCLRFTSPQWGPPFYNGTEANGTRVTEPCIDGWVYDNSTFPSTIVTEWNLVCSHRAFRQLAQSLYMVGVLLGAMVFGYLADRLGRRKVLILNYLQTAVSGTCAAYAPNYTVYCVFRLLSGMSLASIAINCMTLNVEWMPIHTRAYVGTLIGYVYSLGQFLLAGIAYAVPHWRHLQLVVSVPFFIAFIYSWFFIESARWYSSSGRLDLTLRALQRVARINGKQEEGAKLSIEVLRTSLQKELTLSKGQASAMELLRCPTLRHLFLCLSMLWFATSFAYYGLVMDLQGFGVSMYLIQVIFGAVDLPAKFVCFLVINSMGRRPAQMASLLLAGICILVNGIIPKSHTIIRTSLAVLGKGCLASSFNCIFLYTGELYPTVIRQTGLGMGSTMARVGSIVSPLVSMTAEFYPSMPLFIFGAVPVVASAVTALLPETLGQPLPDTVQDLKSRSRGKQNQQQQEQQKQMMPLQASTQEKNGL
Put plainly: TP_TRANSPORTER: inhibition of PAH uptake (PAH: 10 uM, Corticosterone: 500 uM) in Xenopus laevis oocytes. The format is functional, cell-based. The note with it: oocyte.

With `C[C@]12C[C@H](O)[C@H]3[C@@H](CCC4=CC(=O)CC[C@@]43C)[C@@H]1CC[C@@H]2C(=O)CO` [CORTICOSTERONE], the Activity entry was “inhibitor [(at a rough estimate) 25 % of control]”.
